Drawing on patent US9593108B2, “Compounds and methods for antiviral treatment” (PTC Therapeutics, Inc., priority 2009, dated 2017), this text covers IC50 and melting point for 18 compounds.

For data set [1], the system named is HCV replicon RNA (GenBank Accession No. AJ242654). Description: HCV Replicon Assay (replicon RNA reduction and/or Fluc reporter signal). The class given is cell-based, Hepatitis C virus. Particulars: Hepatitis C virus, 72 h, replicon-containing cells cultured with test compound for up to 3 days. The essentials: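 IC50 values mostly reflect the drop in replicon RNA, though Fluc reporter signal may also be used. Compound incubated with cells carrying the bicistronic replicon for as long as 3 days; interferon served as positive control.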

The term IC50 denotes the concentration at which inhibition is half-maximal. In general, melting point refers to the temperature, or range, at which the solid turns liquid.

The compound `CC(C)(C)S(=O)(=O)Nc1ccc(-c2c(C#N)c3cc(C(F)(F)F)cnc3n2C2CCCCC2)cc1` [Cpd 424, N-{4-[3-cyano-1-cyclohexyl-5-(trifluoromethyl)-1H-pyrrolo[2,3-b]pyridin-2-yl]phenyl}-2-methylpropane-2-sulfonamide] gave a melting point of 245 to 247 °C. The compound further registered an IC50 in data set [1] below 500 nM.
`CC(C)S(=O)(=O)Nc1ccc(-c2c(C#N)c3cc(C(F)(F)F)cnc3n2C2CCCCC2)cc1` [Cpd 425, N-{4-[3-cyano-1-cyclohexyl-5-(trifluoromethyl)-1H-pyrrolo[2,3-b]pyridin-2-yl]phenyl}propane-2-sulfonamide] had a melting point of 228 to 230 °C. In data set [1], this compound registered an IC50 below 500 nM.
`CC1(S(=O)(=O)Nc2ccc(-c3c(C#N)c4cc(C(F)(F)F)cnc4n3C3CCCCC3)cc2)CC1` [Cpd 426, N-{4-[3-cyano-1-cyclohexyl-5-(trifluoromethyl)-1H-pyrrolo[2,3-b]pyridin-2-yl]phenyl}-1-methylcyclopropanesulfonamide] returned a melting point of 255 to 256 °C. The compound further yielded an IC50 in data set [1] below 500 nM.
On the same counts, the results for `N#Cc1c(-c2ccc(NS(=O)(=O)C3CC3)cc2)n(C2CCCCC2)c2ncc(C(F)(F)F)cc12` [Cpd 427, N-{4-[3-cyano-1-cyclohexyl-5-(trifluoromethyl)-1H-pyrrolo[2,3-b]pyridin-2-yl]phenyl}cyclopropanesulfonamide] are 225 to 227 °C and below 500 nM.
On the same counts, the results for `N#Cc1c(-c2ccc(NS(=O)(=O)C3CCC3)cc2)n(C2CCCCC2)c2ncc(C(F)(F)F)cc12` [Cpd 428, N-{4-[3-cyano-1-cyclohexyl-5-(trifluoromethyl)-1H-pyrrolo[2,3-b]pyridin-2-yl]phenyl}cyclobutanesulfonamide] are 234 to 236 °C and below 500 nM.
In turn, `C[C@H](NS(=O)(=O)c1ccc(-c2c(C#N)c3cc(Cl)cnc3n2-c2nccs2)nc1)C(F)(F)F` [Cpd 429, 6-[5-chloro-3-cyano-1-(1,3-thiazol-2-yl)-1H-pyrrolo[2,3-b]pyridin-2-yl]-N-[(2S)-1,1,1-trifluoropropan-2-yl]pyridine-3-sulfonamide] yielded a melting point of 181 to 183 °C. The concentration for half-maximal inhibition (IC50) in data set [1] was below 500 nM.
`Cc1cnc2c(c1)c(C#N)c(-c1ccc(S(=O)(=O)N[C@@H](C)C(F)(F)F)cn1)n2-c1cncs1` [Cpd 430, 6-[3-cyano-5-methyl-1-(1,3-thiazol-5-yl)-1H-pyrrolo[2,3-b]pyridin-2-yl]-N-[(2S)-1,1,1-trifluoropropan-2-yl]pyridine-3-sulfonamide] returned a melting point of 176 to 178 °C. In data set [1], this compound registered an IC50 below 500 nM.
Turning to `Cc1cnc2c(c1)c(C#N)c(-c1ccc(S(=O)(=O)N[C@@H](C)C(F)(F)F)cn1)n2-c1ccncn1` [Cpd 431, 6-[3-cyano-5-methyl-1-(pyrimidin-4-yl)-1H-pyrrolo[2,3-b]pyridin-2-yl]-N-[(2S)-1,1,1-trifluoropropan-2-yl]pyridine-3-sulfonamide], the melting point lay in the range of 233 to 235 °C. Further, the IC50 in data set [1] was below 500 nM.
The compound `Cc1cnc2c(c1)c(C#N)c(-c1ccc(S(=O)(=O)N[C@@H](C)C(F)(F)F)cn1)n2-c1ccc(F)cn1` [Cpd 432, 6-[3-cyano-1-(5-fluoropyridin-2-yl)-5-methyl-1H-pyrrolo[2,3-b]pyridin-2-yl]-N-[(2S)-1,1,1-trifluoropropan-2-yl]pyridine-3-sulfonamide] had a melting point of 199 to 200 °C. The IC50 in data set [1] is below 500 nM.
The like results for `Cc1cnc2c(c1)c(C#N)c(-c1ccc(S(=O)(=O)N[C@@H](C)C(F)(F)F)cn1)n2-c1cc(C(F)(F)F)ccn1` [Cpd 433, 6-{3-cyano-5-methyl-1-[4-(trifluoromethyl)pyridin-2-yl]-1H-pyrrolo[2,3-b]pyridin-2-yl}-N-[(2S)-1,1,1-trifluoropropan-2-yl]pyridine-3-sulfonamide] were, in that order, 192 to 194 °C and below 500 nM.
Regarding `Cc1cnc2c(c1)c(C#N)c(-c1ccc(S(=O)(=O)N[C@@H](C)C(F)(F)F)cn1)n2-c1cc(N)ccn1` [Cpd 434, 6-[1-(4-aminopyridin-2-yl)-3-cyano-5-methyl-1H-pyrrolo[2,3-b]pyridin-2-yl]-N-[(2S)-1,1,1-trifluoropropan-2-yl]pyridine-3-sulfonamide], the melting point was 202 to 203 °C. The compound further displayed an IC50 in data set [1] of 2000 to 5000 nM.
In turn, `Cc1cnc2c(c1)c(C#N)c(-c1ccc(S(=O)(=O)N[C@@H](C)C(F)(F)F)cn1)n2-c1ncc(Br)cn1` [Cpd 435, 6-[1-(5-bromopyrimidin-2-yl)-3-cyano-5-methyl-1H-pyrrolo[2,3-b]pyridin-2-yl]-N-[(2S)-1,1,1-trifluoropropan-2-yl]pyridine-3-sulfonamide] yielded a melting point of 169 to 171 °C. This compound gave an IC50 in data set [1] of 500 to 2000 nM.
`Cc1cnc2c(c1)c(C#N)c(-c1ccc(S(=O)(=O)N[C@@H](C)C(F)(F)F)cn1)n2-c1ccnnc1` [Cpd 436, 6-[3-cyano-5-methyl-1-(pyridazin-4-yl)-1H-pyrrolo[2,3-b]pyridin-2-yl]-N-[(2S)-1,1,1-trifluoropropan-2-yl]pyridine-3-sulfonamide] yielded a melting point of 196 to 198 °C. Also, the IC50 in data set [1] was below 500 nM.
As to `C[C@H](NS(=O)(=O)c1ccc(-c2c(C(N)=O)c3cc(C(F)(F)F)cnc3n2C2CCCCC2)cc1)C(F)(F)F` [Cpd 437, 1-cyclohexyl-5-(trifluoromethyl)-2-(4-{[(2S)-1,1,1-trifluoropropan-2-yl]sulfamoyl}phenyl)-1H-pyrrolo[2,3-b]pyridine-3-carboxamide], the melting point lay within 291 to 293 °C. For the same compound, the IC50 in data set [1] was below 500 nM.
For the compound `CC(C)(NS(=O)(=O)c1ccc(-c2c(C(N)=O)c3cc(C(F)(F)F)cnc3n2C2CCCCC2)nc1)C(F)(F)F` [Cpd 438, 1-cyclohexyl-5-(trifluoromethyl)-2-{5-[(1,1,1-trifluoro-2-methylpropan-2-yl)sulfamoyl]pyridin-2-yl}-1H-pyrrolo[2,3-b]pyridine-3-carboxamide], the melting point was in the range of 250 to 252 °C. Further, in data set [1], the IC50 is below 500 nM.
The compound `CC(C)(NS(=O)(=O)c1ccc(-c2c(C(N)=O)c3cc(C(F)(F)F)cnc3n2C2CCCCC2)cc1)C(F)(F)F` [Cpd 439, 1-cyclohexyl-5-(trifluoromethyl)-2-{4-[(1,1,1-trifluoro-2-methylpropan-2-yl)sulfamoyl]phenyl}-1H-pyrrolo[2,3-b]pyridine-3-carboxamide] had a melting point of 280 to 283 °C. Moreover, the IC50 in data set [1] was below 500 nM.
The compound `NC(=O)c1c(-c2ccc(S(=O)(=O)NC3(C(F)(F)F)CC3)cn2)n(C2CCCCC2)c2ncc(C(F)(F)F)cc12` [Cpd 440, 1-cyclohexyl-5-(trifluoromethyl)-2-(5-{[1-(trifluoromethyl)cyclopropyl]sulfamoyl}pyridin-2-yl)-1H-pyrrolo[2,3-b]pyridine-3-carboxamide] gave a melting point of 272 to 275 °C. This compound also yielded an IC50 in data set [1] below 500 nM.
`NC(=O)c1c(-c2ccc(S(=O)(=O)NC3(C(F)(F)F)CC3)cc2)n(C2CCCCC2)c2ncc(C(F)(F)F)cc12` [Cpd 441, 1-cyclohexyl-5-(trifluoromethyl)-2-(4-{[1-(trifluoromethyl)cyclopropyl]sulfamoyl}phenyl)-1H-pyrrolo[2,3-b]pyridine-3-carboxamide]: the melting point lay within 303 to 306 °C. For the same compound, in data set [1], the IC50 was below 500 nM.
